Legend:
Procathepsin L = Procathepsin L (Homo sapiens, UniProt P07711); test: Inhibition of human cathepsin L
Cathepsin B = Cathepsin B (Homo sapiens, UniProt P07858); test: Inhibition of human cathepsin B
Falcipain 2 = target: T1, Falcipain 2 (Plasmodium falciparum, UniProt Q9N6S8); test: Inhibition of Plasmodium falciparum falcipain-2
T1 sequence (Q9N6S8 whole entry): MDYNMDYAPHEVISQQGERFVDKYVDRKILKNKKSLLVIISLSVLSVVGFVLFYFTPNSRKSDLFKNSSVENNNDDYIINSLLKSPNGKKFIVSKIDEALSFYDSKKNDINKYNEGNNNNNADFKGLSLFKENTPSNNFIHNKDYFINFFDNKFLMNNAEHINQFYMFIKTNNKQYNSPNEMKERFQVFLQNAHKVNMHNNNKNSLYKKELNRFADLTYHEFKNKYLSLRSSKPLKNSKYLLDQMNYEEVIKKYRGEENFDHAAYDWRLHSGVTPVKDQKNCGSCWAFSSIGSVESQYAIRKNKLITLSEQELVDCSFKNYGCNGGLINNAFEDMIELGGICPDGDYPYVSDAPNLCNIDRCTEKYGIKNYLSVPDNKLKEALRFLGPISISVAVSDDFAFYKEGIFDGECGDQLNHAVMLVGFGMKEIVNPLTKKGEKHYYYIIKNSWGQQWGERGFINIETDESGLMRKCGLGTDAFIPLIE

Cathepsin K = target: T2, Cathepsin K (Homo sapiens, UniProt P43235); test: Inhibition of human cathepsin K
T2 sequence (P43235 whole entry): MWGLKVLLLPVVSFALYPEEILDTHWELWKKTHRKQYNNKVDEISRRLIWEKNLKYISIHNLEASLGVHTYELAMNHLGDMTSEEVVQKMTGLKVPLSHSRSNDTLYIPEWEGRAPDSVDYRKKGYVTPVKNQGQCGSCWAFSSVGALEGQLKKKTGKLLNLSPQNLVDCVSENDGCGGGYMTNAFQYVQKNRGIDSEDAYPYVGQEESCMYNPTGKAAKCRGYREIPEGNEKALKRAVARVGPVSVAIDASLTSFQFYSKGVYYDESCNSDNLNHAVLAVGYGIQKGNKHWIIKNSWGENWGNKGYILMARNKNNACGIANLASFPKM

Cathepsin S = Cathepsin S (Homo sapiens, UniProt P25774); test: Inhibition of human cathepsin S
Cathepsin S, sequence (P25774 whole entry): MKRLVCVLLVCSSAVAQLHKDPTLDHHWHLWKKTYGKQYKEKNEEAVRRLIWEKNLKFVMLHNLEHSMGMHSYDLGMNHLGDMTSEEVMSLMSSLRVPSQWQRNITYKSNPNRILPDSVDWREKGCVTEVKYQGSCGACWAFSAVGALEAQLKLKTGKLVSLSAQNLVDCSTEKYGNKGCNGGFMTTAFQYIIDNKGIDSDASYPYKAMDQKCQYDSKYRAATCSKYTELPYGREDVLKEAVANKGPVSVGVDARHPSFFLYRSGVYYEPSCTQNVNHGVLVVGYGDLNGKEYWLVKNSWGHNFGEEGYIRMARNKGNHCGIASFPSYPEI

[1] = Selectivity ratio of IC50 for human cathepsin B to IC50 for Plasmodium falciparum falcipain-2
[2] = Selectivity ratio of IC50 for human cathepsin K to IC50 for Plasmodium falciparum falcipain-2
[3] = Selectivity ratio of IC50 for human cathepsin S to IC50 for Plasmodium falciparum falcipain-2
[4] = Selectivity ratio of IC50 for human cathepsin L to IC50 for Plasmodium falciparum falcipain-2
[5] = Cytotoxicity against human HeLa cells assessed as reduction in cell viability; assay type: cell-based
[6] = Cytotoxicity against HUVEC assessed as reduction in cell viability; assay type: cell-based; conditions: human, HUVEC cells
Plasmodium falciparum = test: Antimalarial activity against Plasmodium falciparum infected in human erythrocytes; assay type: functional, organism-based
[7] = target: T3, Cysteine protease falcipain-3 (Plasmodium falciparum, UniProt Q9NAW4); test: Inhibition of Plasmodium falciparum falcipain-3
T3 sequence (Q9NAW4 whole entry): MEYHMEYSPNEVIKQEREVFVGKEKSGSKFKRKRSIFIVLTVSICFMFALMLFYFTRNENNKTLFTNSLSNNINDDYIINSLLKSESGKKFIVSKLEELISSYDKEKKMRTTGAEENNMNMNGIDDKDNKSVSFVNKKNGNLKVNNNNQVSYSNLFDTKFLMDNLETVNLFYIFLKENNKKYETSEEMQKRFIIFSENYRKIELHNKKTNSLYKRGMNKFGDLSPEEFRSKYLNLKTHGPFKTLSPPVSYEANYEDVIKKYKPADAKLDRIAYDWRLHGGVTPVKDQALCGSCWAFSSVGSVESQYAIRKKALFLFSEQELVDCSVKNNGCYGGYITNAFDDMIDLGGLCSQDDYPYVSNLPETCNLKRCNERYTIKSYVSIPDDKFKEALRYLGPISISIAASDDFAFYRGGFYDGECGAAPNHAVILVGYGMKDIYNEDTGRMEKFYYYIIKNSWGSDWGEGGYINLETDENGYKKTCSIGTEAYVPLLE

Procathepsin L, sequence (P07711 whole entry): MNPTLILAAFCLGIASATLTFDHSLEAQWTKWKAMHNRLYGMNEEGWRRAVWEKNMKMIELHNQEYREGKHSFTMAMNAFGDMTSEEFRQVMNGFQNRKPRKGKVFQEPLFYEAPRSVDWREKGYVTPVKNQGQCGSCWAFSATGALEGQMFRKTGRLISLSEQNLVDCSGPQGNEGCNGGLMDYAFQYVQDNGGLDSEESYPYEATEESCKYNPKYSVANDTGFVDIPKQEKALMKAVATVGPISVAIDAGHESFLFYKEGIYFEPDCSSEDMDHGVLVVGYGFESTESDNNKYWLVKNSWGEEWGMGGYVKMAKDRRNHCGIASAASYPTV

Row | IC50 (Procathepsin L) [nM] | IC50 (Cathepsin B) [nM] | IC50 (Falcipain 2) [nM] | IC50 (Cathepsin K) [nM] | IC50 (Cathepsin S) [nM] | Ratio IC50 [1] | Ratio IC50 [2] | Ratio IC50 [3] | Ratio IC50 [4] | EC50 (Plasmodium falciparum) [nM] | IC50 [7] [nM] | Structure (SMILES) | CC50 [5] [nM] | CC50 [6] [nM]
1 | 300 | 2240 | 1590 | 2690 | 3580 | – | – | – | – | – | – | N#CC1(NC(=O)[C@H](Cc2ccc(O[C@@H]3CCNC3)cc2)NC(=O)c2ccc(-c3ccccc3)cc2)CC1 | – | –
2 | 4280 | > 5000 | 230 | > 5000 | 190 | – | – | – | – | – | – | N#CC1(NC(=O)C(Cc2ccc(Cl)nc2)NC(=O)c2ccc(-c3ccccc3)cc2)CC1 (stereo unspecified) | – | –
3 | 492 | 1720 | 27 | 1.3 | 85 | – | – | – | – | – | – | CC(C)C[C@H](NC(=O)c1ccc(-c2ccccc2)cc1)C(=O)NC1(C#N)CC1 | – | –
4 | – | – | > 5000 | – | – | – | – | – | – | – | – | N#CC1(NC(=O)[C@H](CCCCCN)NC(=O)c2ccc(-c3ccccc3)cc2)CC1 | – | –
5 | 494 | 1100 | 192 | 1870 | 253 | – | – | – | – | – | – | N#CC1(NC(=O)[C@H](Cc2c[nH]c3ccc(O)cc23)NC(=O)c2ccc(-c3ccccc3)cc2)CC1 | – | –
6 | 1590 | 2750 | 23.1 | 202 | 382 | 119 | 9 | 11 | 69 | > 25000 | 117 | N#CC1(NC(=O)[C@H](Cc2cccnc2)NC(=O)c2ccc(-c3ccccc3)cc2)CC1 | – | –
7 | > 5000 | 1270 | > 5000 | > 5000 | > 5000 | – | – | – | – | – | – | N#CC1(NC(=O)[C@H](CCCCN)NC(=O)c2ccc(-c3ccccc3)cc2)CC1 | – | –
8 | 635 | 2210 | 667 | 213 | 283 | – | – | – | – | – | – | N#CC1(NC(=O)[C@H](Cc2ccccc2)NC(=O)c2ccc(-c3ccccc3)cc2)CC1 | – | –
9 | > 5000 | 715 | > 5000 | > 5000 | – | – | – | – | – | – | – | CN(C)c1ccc(C[C@H](NC(=O)c2ccc(-c3ccccc3)cc2)C(=O)NC2(C#N)CC2)cc1 | – | –
10 | > 5000 | 2370 | 137 | 435 | 2370 | – | – | – | – | – | – | N#CC1(NC(=O)[C@H](Cc2cscn2)NC(=O)c2ccc(-c3ccccc3)cc2)CC1 | – | –
11 | 334 | > 5000 | > 5000 | > 5000 | 18 | – | – | – | – | – | – | N#CC1(NC(=O)[C@H](Cc2nc3ccccc3s2)NC(=O)c2ccc(-c3ccccc3)cc2)CC1 | – | –
12 | > 5000 | > 50000 | > 5000 | > 5000 | > 5000 | – | – | – | – | – | – | N#CC1(NC(=O)[C@@H](Cc2cccnc2)NC(=O)c2ccc(-c3ccccc3)cc2)CC1 | – | –
13 | 99 | 2500 | 8 | 0.11 | 1.1 | – | – | – | – | > 25000 | – | CC(C)C[C@H](NC(=O)c1ccc(-c2ccccc2)cc1)C(=O)NC1(C#N)CCS(=O)(=O)CC1 | – | –
14 | 755 | > 5000 | > 5000 | 867 | 710 | – | – | – | – | – | – | N#CC1(NC(=O)[C@H](Cc2ccncc2)NC(=O)c2ccc(-c3ccccc3)cc2)CC1 | – | –
15 | 2630 | 4080 | 178 | > 5000 | 195 | – | – | – | – | – | – | COc1ccc(CC(NC(=O)c2ccc(-c3ccccc3)cc2)C(=O)NC2(C#N)CC2)cn1 (stereo unspecified) | – | –
16 | > 5000 | > 5000 | > 5000 | 3830 | > 5000 | – | – | – | – | – | – | N#CC1(NC(=O)[C@H](Cc2ccccn2)NC(=O)c2ccc(-c3ccccc3)cc2)CC1 | – | –

The remaining lines, values behind:

Row | Structure (SMILES) | IC50 (Procathepsin L) [nM] | IC50 (Cathepsin B) [nM] | IC50 (Falcipain 2) [nM] | IC50 (Cathepsin K) [nM] | IC50 (Cathepsin S) [nM] | Ratio IC50 [1] | Ratio IC50 [2] | Ratio IC50 [3] | Ratio IC50 [4] | EC50 (Plasmodium falciparum) [nM] | IC50 [7] [nM] | CC50 [5] [nM] | CC50 [6] [nM]
17 | Cn1nc(C(F)(F)F)cc1-c1ccc(C(=O)N[C@@H](Cc2cccnc2)C(=O)NC2(C#N)CCS(=O)(=O)CC2)s1 | – | – | 6.3 | – | – | > 793 | 107 | 9 | 679 | – | – | – | –
18 | CN1CCN(Cc2ccc(-c3cncc(C(=O)N[C@@H](Cc4cccnc4)C(=O)NC4(C#N)CC4)c3)cc2)CC1 | – | – | 2.4 | – | – | > 2080 | > 2080 | 552 | 45 | 2000 | – | > 16000 | > 16000
19 | CS(=O)(=O)c1cccc(-c2cccc(C(=O)N[C@@H](Cc3cccnc3)C(=O)NC3(C#N)CC3)c2)c1 | – | – | 8.2 | – | – | > 610 | 180 | 26 | 302 | – | – | – | –
20 | CC(C)CN(NC(=O)c1ccc(CN2CCN(C)CC2)cc1)c1nc(C#N)ncc1Br | 0.7 | 987 | 0.6 | 0.2 | 30 | – | – | – | – | 61 | – | – | –
21 | N#CC1(NC(=O)[C@H](Cc2cccnc2)NC(=O)c2cccc(-n3cnnn3)c2)CC1 | – | – | 3 | – | – | > 1670 | 1360 | 35 | 574 | 2000 | – | > 16000 | > 16000
22 | N#CC1(NC(=O)[C@H](Cc2cccnc2)NC(=O)c2cccc(-c3cn[nH]c3)c2)CC1 | – | – | 1.2 | – | – | > 4170 | 2350 | 42 | 349 | 2000 | – | > 16000 | > 16000
23 | CC(C)C[C@H](NC(=O)c1ccc(CN2CCN(C)CC2)cc1)C(=O)NC1(C#N)CCS(=O)(=O)CC1 | 4 | 2320 | 57 | 1 | 1 | – | – | – | – | 2700 | – | – | –
24 | CN1CCN(Cc2ccc(C(=O)N[C@@H](Cc3cccnc3)C(=O)NC3(C#N)CCS(=O)(=O)CC3)s2)CC1 | – | – | 55.4 | – | – | > 90 | 34 | 7 | 6 | – | – | – | –
25 | Cn1nc(C(F)(F)F)cc1-c1ccc(C(=O)N[C@@H](Cc2cccnc2)C(=O)NC2(C#N)CC2)s1 | – | – | 2.2 | – | – | > 2270 | 212 | 30 | 1240 | – | – | – | –
26 | CN1CCCC(c2cccc(C(=O)N[C@@H](Cc3cccnc3)C(=O)NC3(C#N)CC3)c2)C1 (stereo partly specified) | – | – | 8.6 | – | – | > 581 | 170 | 202 | 61 | – | – | – | –
27 | CN1CCN(Cc2ccc(C(=O)N[C@@H](Cc3cccnc3)C(=O)NC3(C#N)CC3)s2)CC1 | – | – | 25.9 | – | – | > 192 | 34 | 32 | 14 | – | – | – | –
28 | N#CC1(NC(=O)[C@H](Cc2cccnc2)NC(=O)c2cccc(-c3ncc[nH]3)c2)CC1 | – | – | 2.7 | – | – | > 1850 | 718 | 76 | 128 | 2000 | – | > 16000 | > 16000
29 | CN1CCN(C(=O)C[C@H](NC(=O)c2ccc(-c3ccccc3)cc2)C(=O)NC2(C#N)CC2)CC1 | > 5000 | > 5000 | > 5000 | > 5000 | > 5000 | – | – | – | – | – | – | – | –
